Experiments:
Experiment in all cases: relative viability (nuclei count vs DMSO), 5 days (fraction); higher = more cells survive
[1] = compound: CCn1c(-c2nonc2N)nc2cnc(Oc3cccc(NC(=O)c4ccc(OCCN5CCOCC5)cc4)c3)cc21 + CC1(C)CCC(c2ccc(Cl)cc2)=C(CN2CCN(c3ccc(C(=O)NS(=O)(=O)c4ccc(N[C@H](CCN5CCOCC5)CSc5ccccc5)c(S(=O)(=O)C(F)(F)F)c4)cc3)CC2)C1 [Navitoclax] (partner 0.5 µM)
Method in brief: (§1)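 Nuclei were stained with Hoechst during a one-step fixation (final 0.05% Triton X-100, 1% formaldehyde, 1 ug/ml Hoechst) carried out 5 days after dosing, then counted on 4× images. The cells, lung cancer lines in 1536-well plates, had been dosed by pin tool the day after seeding with one drug alone or a fixed anchor-drug dose plus five library-drug doses (not always all listed) in √10 steps. Relative viability is the nuclei count in treated wells divided by that in vehicle wells, and each value is the median of duplicate plates.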

[2] = compound: CCC1=CN=CN=C1N2CCN(CC2)CC3=NC4=C(N3)C=C(C=C4)C(F)(F)F + COc1cccc2cc(-c3nc([C@H]4CC[C@H](C(=O)O)CC4)n4ncnc(N)c34)[nH]c12 [OSI-027] (partner 0.5 µM)
Method in brief: as §1

[3] = compound: CCn1c(-c2nonc2N)nc2cnc(Oc3cccc(NC(=O)c4ccc(OCCN5CCOCC5)cc4)c3)cc21 + NC(=O)Nc1cc(-c2cccc(F)c2)sc1C(=O)N[C@H]1CCCNC1 [AZD7762] (partner 0.2 µM)
Method in brief: as §1

[4] = compound: CCC1=CN=CN=C1N2CCN(CC2)CC3=NC4=C(N3)C=C(C=C4)C(F)(F)F + Nc1ncn([C@H]2C[C@H](O)[C@@H](CO)O2)c(=O)n1 [Decitabine] (partner 2 µM)
Method in brief: as §1

Cell Line | relative viability ([1]; first compound 0.04 µM) | relative viability ([1]; first compound 0.1265 µM) | relative viability ([1]; first compound 0.4 µM) | relative viability ([1]; first compound 1.265 µM) | relative viability ([1]; first compound 4 µM) | relative viability ([2]; first compound 0.04 µM) | relative viability ([2]; first compound 0.1265 µM) | relative viability ([2]; first compound 0.4 µM) | relative viability ([2]; first compound 1.265 µM) | relative viability ([2]; first compound 4 µM) | relative viability ([3]; first compound 0.04 µM) | relative viability ([3]; first compound 0.1265 µM) | relative viability ([3]; first compound 0.4 µM) | relative viability ([3]; first compound 1.265 µM) | relative viability ([3]; first compound 4 µM) | relative viability ([4]; first compound 0.04 µM) | relative viability ([4]; first compound 0.1265 µM) | relative viability ([4]; first compound 0.4 µM) | relative viability ([4]; first compound 1.265 µM) | relative viability ([4]; first compound 4 µM)
NCI-H1437 | 1.1 | 1.09 | 1.02 | 0.747 | 0.607 | 0.857 | 0.847 | 0.777 | 0.667 | 0.749 | 1.13 | 1.08 | 0.718 | 0.625 | 0.642 | 0.537 | 0.529 | 0.531 | 0.589 | 0.487
EMC-BAC-2 | 1.44 | 1.2 | 1.18 | 1.16 | 1.19 | 0.37 | 0.37 | 0.386 |  | 0.375 | 1.17 | 1.01 | 0.504 | 0.476 | 0.32 |  | 0.945 | 0.998 | 0.924 | 1.05
NCI-H2087 |  | 0.789 | 0.962 | 0.785 | 0.598 | 0.584 | 0.56 | 0.385 | 0.451 | 0.5 | 1.45 | 1.11 | 1.13 | 0.845 | 0.867 | 0.278 | 0.234 | 0.331 | 0.271 | 0.209
LXF-289 | 1.05 | 1.05 | 1.09 | 0.991 | 1.06 | 0.762 | 0.713 | 0.628 | 0.643 | 0.815 | 1.19 | 1.23 | 0.638 | 0.506 | 0.224 | 0.348 | 0.325 | 0.426 | 0.343 | 0.419
LOU-NH91 | 0.8 | 0.597 | 0.557 | 0.392 | 0.447 | 0.613 | 0.709 | 0.711 | 0.677 | 0.75 | 0.782 | 0.631 | 0.421 | 0.432 | 0.424 | 0.797 | 0.79 | 0.806 | 0.841 | 0.816
NCI-H2347 | 0.967 | 0.811 | 0.858 | 0.365 | 0.502 | 0.471 | 0.446 | 0.374 | 0.262 | 0.406 | 0.951 | 0.766 | 0.641 | 0.378 | 0.413 | 0.666 | 0.551 | 0.63 | 0.613 | 0.529
NCI-H1993 | 0.795 | 0.941 |  | 0.902 | 0.787 | 0.49 | 0.55 | 0.614 | 0.494 | 0.604 | 0.763 | 0.701 | 0.598 | 0.742 | 0.742 | 0.563 | 0.62 | 0.621 | 0.522 | 0.51
HCC-827 | 1.09 | 0.98 | 0.982 | 1.02 | 0.841 | 0.829 | 0.69 | 0.719 |  | 0.673 | 0.241 | 0.23 | 0.233 | 0.178 | 0.203 | 0.504 | 0.286 | 0.34 | 0.307 | 0.357
PC-14 | 1.1 | 1.01 | 0.924 | 0.934 | 0.748 | 0.871 | 0.814 | 0.809 | 0.766 | 0.82 | 0.334 | 0.323 | 0.218 | 0.215 | 0.232 | 0.209 | 0.159 | 0.22 | 0.205 | 0.228
NCI-H23 | 1.18 | 0.956 |  | 0.806 | 0.651 | 0.603 | 0.65 | 0.641 | 0.58 | 0.551 | 0.453 | 0.277 | 0.229 | 0.115 | 0.151 | 0.288 | 0.31 | 0.282 | 0.252 | 0.358
NCI-H727 | 0.476 | 0.564 | 0.46 | 0.441 | 0.382 | 0.531 | 0.618 | 0.581 | 0.423 | 0.533 |  | 0.699 | 0.539 | 0.566 | 0.739 | 0.798 | 0.875 | 0.956 | 0.655 | 0.941
HCC-366 | 1.25 | 1.14 | 1.04 | 0.178 | 0.0486 | 0.789 | 0.898 | 0.939 | 0.297 | 0.911 | 0.233 | 0.123 | 0.101 | 0.0314 | 0.0325 | 0.356 | 0.288 | 0.317 | 0.307 | 0.353
HCC-44 | 0.944 | 1.07 | 1.14 | 1 | 0.963 | 0.479 | 0.446 | 0.532 | 0.416 | 0.406 | 1.07 | 1.18 | 0.916 | 0.975 | 0.333 | 0.964 | 0.939 | 0.944 | 0.949 | 0.937
A-427 | 1.04 | 1.07 | 0.887 | 0.964 | 1.01 | 0.432 | 0.476 | 0.413 | 0.434 | 0.417 | 0.774 | 0.503 | 0.364 | 0.188 | 0.21 | 0.55 | 0.548 | 0.556 | 0.535 | 0.599
NCI-H441 | 0.745 | 0.653 | 0.481 | 0.323 | 0.508 | 0.478 | 0.611 | 0.543 | 0.56 | 0.6 | 1.34 | 1.05 | 1.21 | 0.961 | 0.698 | 0.239 | 0.212 | 0.21 | 0.264 | 0.315
LK-2 | 0.989 | 0.928 | 0.467 | 0.349 | 0.686 | 0.17 | 0.22 | 0.182 | 0.165 | 0.23 | 0.525 | 0.583 | 0.156 | 0.113 | 0.284 | 0.254 | 0.266 | 0.346 | 0.256 | 0.231
NCI-H647 | 1.06 | 0.828 | 0.89 | 0.517 | 0.595 | 0.671 | 0.855 | 0.557 | 0.413 | 0.462 | 0.523 | 0.242 | 0.249 | 0.193 | 0.121 | 0.449 | 0.273 | 0.356 | 0.325 | 0.301
NCI-H1793 | 0.315 | 0.38 | 0.305 | 0.191 | 0.238 | 0.22 | 0.301 | 0.25 |  | 0.259 | 0.483 | 0.284 | 0.276 | 0.179 | 0.157 | 0.479 | 0.484 | 0.436 | 0.428 | 0.432
NCI-H3122 | 1.02 | 1.03 | 1.05 | 0.974 | 0.979 | 1.02 | 0.974 | 0.937 | 0.938 | 1.17 | 1.06 | 0.984 | 0.939 | 0.871 | 0.739 | 0.387 | 0.459 | 0.418 | 0.452 | 0.351
NCI-H1755 | 1.06 | 1.01 | 0.944 | 0.992 | 0.996 | 0.712 | 0.691 | 0.717 | 0.458 | 0.663 | 0.437 | 0.4 | 0.291 | 0.243 | 0.31 | 0.759 | 0.693 | 0.729 | 0.72 | 0.759
NCI-H1734 | 1.11 | 0.81 | 0.684 | 0.564 | 0.345 | 0.601 | 0.557 | 0.58 | 0.513 | 0.714 | 0.581 | 0.423 | 0.274 | 0.22 | 0.224 | 0.458 | 0.465 | 0.566 | 0.499 | 0.489
EPLC-272H | 1.22 | 1.07 | 1.1 | 1.05 | 1.1 | 0.255 | 0.302 | 0.264 | 0.308 | 0.276 | 0.211 | 0.199 | 0.153 | 0.128 | 0.0806 | 0.347 | 0.319 | 0.388 | 0.288 | 0.406

Reference: the supplement of paper PMC10307832
